# Results taken from PMC6111308, “Antimycobacterial, Enzyme Inhibition, and Molecular Interaction Studies of Psoromic Acid in Mycobacterium tuberculosis: Efficacy and Safety Investigations” (Journal of Clinical Medicine, 2018).
# Target: T1, arylamine-N-acetyltransferase (TBNAT) (Mycobacterium tuberculosis, UniProt P9WJI5)
# T1 construct: gene nat
# T1 sequence (P9WJI5 1-283): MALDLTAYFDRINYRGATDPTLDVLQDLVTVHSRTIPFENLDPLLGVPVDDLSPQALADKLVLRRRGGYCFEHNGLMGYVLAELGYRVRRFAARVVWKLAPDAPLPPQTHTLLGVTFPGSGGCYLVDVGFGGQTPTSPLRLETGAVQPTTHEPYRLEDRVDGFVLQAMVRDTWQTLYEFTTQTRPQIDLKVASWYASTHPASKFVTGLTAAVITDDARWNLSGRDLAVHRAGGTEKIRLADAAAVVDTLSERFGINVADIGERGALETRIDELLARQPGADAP
# Experiment: biochemical
row,Compound,IC50 [µM]
1,"NNC(=O)c1ccncc1 [INH, isoniazid]",6.2
2,"COc1cc(C(=O)O)c2c(c1C)OC(=O)c1c(C)cc(O)c(C=O)c1O2 [PA, psoromic acid]",8.7
